Test results published in patent US20250144067A1, “PERSONALIZED STARVATION THERAPY FOR CANCER” (Faeth Therapeutics, Inc., priority 2021, published 2025).
Where a name gives a salt, the structure may show the parent alone. Read-outs that look alike come from different tables or passages of the source.

Tests used:
[1] = system: NCI-H292 lung cancer cells; test: FDA drug screening, complete media vs cholesterol-free media with simvastatin (TABLE 2); format: cell-based, human
[2] = system: NCI-H292 lung cancer cells; test: FDA drug screening, complete media vs cholesterol-free media without statin (TABLE 1); format: cell-based, human
[3] = NCI-H292 cells, cholesterol-free media with simvastatin 0.04 μM, FDA drug library screen (TABLE 2)
[4] = NCI-H292 cells, complete media, FDA drug library screen (TABLE 2)
[5] = complete media minus cholesterol-free media + simvastatin (0.04 μM), >0 enhanced anti-cancer activity, about 0 neutral, <0 antagonist
[6] = Complete minus Cholesterol-free, >0 enhanced anti-cancer activity, about 0 neutral, <0 antagonist
[7] = NCI-H292 cells, cholesterol-free media without statin, FDA drug library screen
[8] = NCI-H292 cells, complete media, FDA drug library screen
[9] = NCI-H292 cells, FDA drug library screen, cholesterol-free media with simvastatin 0.04 μM
[10] = NCI-H292 cells, FDA drug library screen, complete media
[11] = complete media vs cholesterol-free media + simvastatin (0.04 μM), >0 enhanced anti-cancer activity, about 0 neutral, <0 antagonist
[12] = complete vs cholesterol-free media, >0 enhanced anti-cancer activity, about 0 neutral, <0 antagonist
[13] = complete media minus cholesterol-free media + simvastatin, […]
[14] = NCI-H292 cells, cholesterol-free media without statin
[15] = complete vs cholesterol-free media, […]
[16] = complete media vs cholesterol-free media + simvastatin (0.04 μM), […]
[17] = Complete minus Cholesterol-free, […]
[18] = NCI-H292 cells, cholesterol-free media with simvastatin 0.04 μM, cell growth value in FDA drug screen
[19] = NCI-H292 cells, complete media, cell growth value in FDA drug screen
[20] = complete media minus cholesterol-free media + simvastatin, >0 enhanced anti-cancer activity, about 0 neutral, <0 antagonist
[21] = Complete minus Cholesterol-free, greater than 0 enhanced anti-cancer activity, about 0 neutral, below 0 antagonists
[22] = NCI-H292 cells in cholesterol-free media without statin
[23] = NCI-H292 cells in complete media
[24] = complete vs cholesterol-free media, greater than 0 enhanced anti-cancer activity, about 0 neutral, below 0 antagonists
[25] = NCI-H292 cells, drug in cholesterol-free media with simvastatin 0.04 μM
[26] = NCI-H292 cells, drug in complete media
[27] = Complete minus Cholesterol-free, greater than 0 enhanced anti-cancer activity, about 0 neutral, below 0 antagonist
[28] = NCI-H292 cells, FDA drug library screen, cholesterol-free media without statin
[29] = NCI-H292 cells, FDA library drug in cholesterol-free media with simvastatin 0.04 μM
[30] = NCI-H292 cells, FDA library drug in complete media

CC(C)C[C@H](NC(=O)CNC(=O)c1cc(Cl)ccc1Cl)B(O)O [Ixazomib]
Cholesterol-free media + simvastatin (0.04 μM) [1, 3]: 0.01223 | Complete Media [1, 4]: −0.009398 | Difference [1, 5]: −0.02 | Difference [2, 6]: −0.06 | Cholesterol-free [2, 7]: 0.05045 | Complete [2, 8]: −0.01336

CO[C@@H]1[C@@H](O[C@@H]2O[C@H](C)[C@@H](O[C@H]3C[C@@](C)(O)[C@@H](OC(=O)CC(C)C)[C@H](C)O3)[C@H](N(C)C)[C@H]2O)[C@@H](CC=O)C[C@@H](C)[C@@H](O)/C=C/C=C/C[C@@H](C)OC(=O)C[C@H]1OC(C)=O [Josamycin]
Cholesterol-free media + simvastatin (0.04 μM) [1, 9]: 0.9194 | Complete Media [1, 10]: 0.8246 | Difference [1, 11]: −0.09 | Cholesterol-free [2, 7]: 0.6797 | Complete [2, 8]: 1.216 | Difference [2, 12]: 0.54

C=C1CC[C@@H]2[C@](C)(COC(=O)CCC(=O)[O-])[C@H](OC(=O)CCC(=O)O)CC[C@@]2(C)[C@@H]1/C=C/C1=CCOC1=O.[K+] [Kalii Dehydrographolidi Succinas]
Cholesterol-free media + simvastatin (0.04 μM) [1, 9]: 0.8904 | Complete Media [1, 10]: 1.183 | Difference [1, 13]: 0.29 | Cholesterol-free [2, 14]: 1.388 | Complete ([2]; NCI-H292 cells, complete media): 1.081 | Difference [2, 15]: −0.31

C[C@H]1O[C@H](OC2[C@@H](O)[C@@H](O)C(O)[C@H](O)[C@H]2O)[C@@H](N)C[C@@H]1N=C(N)C(=O)O.Cl.O (some centres unmarked) [Kasugamycin (hydrochloride hydrate)]
Cholesterol-free media + simvastatin (0.04 μM) [1, 9]: 1.288 | Difference [1, 16]: −0.14 | Difference [2, 17]: −0.06 | Cholesterol-free [2, 7]: 1.256 | Complete [2, 8]: 1.194

O=C(c1ccc(F)cc1)C1CCN(CCn2c(=O)[nH]c3ccccc3c2=O)CC1 [Ketanserin]
Cholesterol-free media + simvastatin (0.04 μM) [1, 18]: 1.439 | Complete Media [1, 19]: 1.462 | Difference [1, 20]: 0.02 | Difference [2, 21]: −0.47 | Cholesterol-free [2, 22]: 1.183 | Complete [2, 23]: 0.7093

CC(=O)N1CCN(c2ccc(OCC3COC(Cn4ccnc4)(c4ccc(Cl)cc4Cl)O3)cc2)CC1 (centres unmarked) [Ketoconazole]
Cholesterol-free media + simvastatin (0.04 μM) [1, 9]: 0.2012 | Complete Media [1, 10]: 0.801 | Difference [1, 20]: 0.60 | Cholesterol-free [2, 14]: 1.003 | Complete ([2]; NCI-H292 cells, complete media): 0.6148 | Difference [2, 24]: −0.39

CC(C(=O)O)c1cccc(C(=O)c2ccccc2)c1 (centres unmarked) [Ketoprofen]
Cholesterol-free media + simvastatin (0.04 μM) [1, 18]: 0.9565 | Complete Media [1, 19]: 0.9752 | Difference [1, 20]: 0.02 | Cholesterol-free [2, 14]: 1.284 | Complete ([2]; NCI-H292 cells, complete media): 0.8938 | Difference [2, 24]: −0.39

NC(CO)(CO)CO.O=C(c1ccccc1)c1ccc2n1CCC2C(=O)O (centres unmarked) [Ketorolac (tromethamine salt)]
Cholesterol-free media + simvastatin (0.04 μM) [1, 25]: 1.289 | Complete Media [1, 26]: 1.116 | Difference [1, 11]: −0.17 | Cholesterol-free [2, 14]: 1.112 | Complete ([2]; NCI-H292 cells, complete media): 0.6871 | Difference [2, 24]: −0.42

N[C@@H](Cc1c[nH]c2ccc(O)cc12)C(=O)O [L-5-Hydroxytryptophan]
Cholesterol-free media + simvastatin (0.04 μM) [1, 9]: 1.408 | Complete Media [1, 10]: 1.327 | Difference [1, 11]: −0.08 | Difference [2, 27]: −0.10 | Cholesterol-free [2, 28]: 1.028 | Complete [2, 10]: 0.9245

C[C@](N)(Cc1ccc(O)c(O)c1)C(=O)O.O [L-(−)-α-Methyldopa (hydrate)]
Cholesterol-free media + simvastatin (0.04 μM) [1, 29]: 1.97 | Complete Media [1, 30]: 1.117 | Difference [1, 11]: −0.85 | Difference [2, 21]: −0.69 | Cholesterol-free [2, 22]: 1.665 | Complete [2, 23]: 0.973

Cl.N=C(N)NCCC[C@H](N)C(=O)O [L-Arginine (hydrochloride)]
Cholesterol-free media + simvastatin (0.04 μM) [1, 3]: 0.9293 | Complete Media [1, 4]: 0.9241 | Difference ([1]; complete media minus cholesterol-free media + simvastatin (0.04 μM), […]): −0.01 | Difference [2, 17]: −0.16 | Cholesterol-free [2, 28]: 1.414 | Complete [2, 10]: 1.256

N=C(N)NCCC[C@H](N)C(=O)O [L-Arginine]
Cholesterol-free media + simvastatin (0.04 μM) [1]: 1.189 | Complete Media [1]: 1.484 | Difference [1]: 0.29 | Cholesterol-free [2]: 0.984 | Complete [2]: 1.115 | Difference [2]: 0.13

O=C1O[C@H]([C@@H](O)CO)C(O)=C1O [L-Ascorbic acid (sodium salt)]
Cholesterol-free media + simvastatin (0.04 μM) [1, 3]: 0.9802 | Complete Media [1, 4]: 0.9199 | Difference [1, 5]: −0.06 | Difference [2, 27]: −0.14 | Cholesterol-free [2, 28]: 0.9664 | Complete [2, 10]: 0.8232

O=C1O[C@H]([C@@H](O)CO)C(O)=C1O [L-Ascorbic acid]
Cholesterol-free media + simvastatin (0.04 μM) [1, 9]: 1.16 | Complete Media [1, 10]: 1.003 | Difference [1, 11]: −0.16 | Difference [2, 27]: −0.14 | Cholesterol-free [2, 28]: 1.001 | Complete [2, 10]: 0.8619

NC(=O)C[C@H](N)C(=O)O [L-Asparagine]
Cholesterol-free media + simvastatin (0.04 μM) [1, 18]: 0.6588 | Complete Media [1, 19]: 0.704 | Difference [1, 20]: 0.05 | Difference [2, 6]: −0.27 | Cholesterol-free [2, 14]: 1.71 | Complete ([2]; NCI-H292 cells, complete media): 1.437

C[N+](C)(C)C[C@H](O)CC(=O)[O-].Cl [L-Carnitine (hydrochloride)]
Cholesterol-free media + simvastatin (0.04 μM) ([1]; NCI-H292 cells, cholesterol-free media with simvastatin 0.04 μM, […]): 0.7755 | Complete Media ([1]; NCI-H292 cells, complete media, […]): 0.7998 | Difference [1, 13]: 0.02 | Cholesterol-free [2, 14]: 1.478 | Difference [2, 15]: −0.31

C[N+](C)(C)C[C@H](O)CC(=O)[O-] [L-Carnitine]
Cholesterol-free media + simvastatin (0.04 μM) [1, 9]: 0.9127 | Complete Media [1, 10]: 0.8221 | Difference [1, 11]: −0.09 | Difference [2, 27]: −0.11 | Cholesterol-free [2, 28]: 1.053 | Complete [2, 10]: 0.9402

N[C@H]1CONC1=O [L-Cycloserine]
Cholesterol-free media + simvastatin (0.04 μM) [1, 18]: 0.815 | Complete Media [1, 19]: 0.9066 | Difference [1, 20]: 0.09 | Difference [2, 21]: −0.78 | Cholesterol-free [2, 22]: 1.458 | Complete [2, 23]: 0.6746

Cl.N[C@@H](CS)C(=O)O [L-Cysteine (hydrochloride)]
Cholesterol-free media + simvastatin (0.04 μM) [1, 25]: 1.122 | Complete Media [1, 26]: 0.9187 | Difference [1, 16]: −0.20 | Difference [2, 17]: −0.04 | Cholesterol-free [2, 7]: 1.166 | Complete [2, 8]: 1.124

N[C@@H](CS)C(=O)O [L-Cysteine]
Cholesterol-free media + simvastatin (0.04 μM) [1, 3]: 1.471 | Complete Media [1, 4]: 1.439 | Difference [1, 5]: −0.03 | Difference [2, 6]: −0.21 | Complete ([2]; NCI-H292 cells, complete media): 0.7323

Cl.NCCC[C@](N)(C(=O)O)C(F)F [L-Eflornithine (monohydrochloride)]
Cholesterol-free media + simvastatin (0.04 μM) [1, 3]: 1.266 | Complete Media [1, 4]: 1.268 | Difference [1, 5]: 0.00 | Difference [2, 6]: 0.02 | Cholesterol-free [2, 7]: 0.8255 | Complete [2, 8]: 0.8469

CNC[C@H](O)c1ccc(O)c(O)c1.O=C(O)C(O)C(O)C(=O)O [L-Epinephrine (Bitartrate)]
Cholesterol-free media + simvastatin (0.04 μM) [1, 18]: 1.096 | Complete Media [1, 19]: 1.136 | Difference [1, 20]: 0.04 | Difference [2, 27]: −0.14 | Cholesterol-free [2, 28]: 1.247 | Complete [2, 10]: 1.112

N[C@@H](CCC(=O)O)C(=O)[O-].[Na+] [L-Glutamic acid monosodium salt]
Cholesterol-free media + simvastatin (0.04 μM) [1, 29]: 1.191 | Complete Media [1, 30]: 0.778 | Difference [1, 16]: −0.41 | Difference [2, 17]: −0.03 | Cholesterol-free [2, 7]: 1.093 | Complete [2, 8]: 1.059

NC(=O)CC[C@H](N)C(=O)O [L-Glutamine]
Cholesterol-free media + simvastatin (0.04 μM) [1, 3]: 0.8178 | Complete Media [1, 4]: 0.7954 | Difference [1, 5]: −0.02 | Cholesterol-free [2, 7]: 1.026 | Complete [2, 8]: 1.522 | Difference [2, 12]: 0.50

N[C@@H](Cc1c[nH]cn1)C(=O)O [L-Histidine]
Cholesterol-free media + simvastatin (0.04 μM) [1, 18]: 1.86 | Complete Media [1, 19]: 1.878 | Difference [1, 20]: 0.02 | Difference [2, 21]: −0.88 | Cholesterol-free [2, 22]: 2.131 | Complete [2, 23]: 1.254

CN1[C@@H]2CC[C@H]1C[C@@H](OC(=O)[C@H](CO)c1ccccc1)C2 [L-Hyoscyamine]
Cholesterol-free media + simvastatin (0.04 μM) [1, 25]: 1.192 | Complete Media [1, 26]: 1.027 | Difference [1, 16]: −0.16 | Difference [2, 17]: −0.26 | Cholesterol-free [2, 14]: 1.23 | Complete ([2]; NCI-H292 cells, complete media): 0.9714

CC[C@H](C)[C@H](N)C(=O)O [L-Isoleucine]
Cholesterol-free media + simvastatin (0.04 μM) [1, 9]: 2.302 | Difference [1, 5]: −1.28 | Difference [2, 6]: 0.06 | Cholesterol-free [2, 7]: 1.023 | Complete [2, 8]: 1.082

C[C@H](O)C(=O)O [L-Lactic acid]
Cholesterol-free media + simvastatin (0.04 μM) [1, 25]: 1.063 | Complete Media [1, 26]: 0.8704 | Difference [1, 11]: −0.19 | Cholesterol-free [2, 14]: 1.267 | Complete ([2]; NCI-H292 cells, complete media): 0.8145 | Difference [2, 24]: −0.45

CC(C)C[C@H](N)C(=O)O [L-Leucine]
Cholesterol-free media + simvastatin (0.04 μM) [1, 25]: 1.064 | Complete Media [1, 26]: 0.8826 | Difference [1, 16]: −0.18 | Cholesterol-free [2, 7]: 1.354 | Complete [2, 8]: 1.837 | Difference [2, 15]: 0.48
